The values below come from patent US12398120B2, “Substituted hydantoinamides as ADAMTS7 antagonists” (BAYER AKTIENGESELLSCHAFT, priority 2019, dated 2025).

Molecules are shown by their SMILES.

ADAMTS4, sequence (O75173 213-685): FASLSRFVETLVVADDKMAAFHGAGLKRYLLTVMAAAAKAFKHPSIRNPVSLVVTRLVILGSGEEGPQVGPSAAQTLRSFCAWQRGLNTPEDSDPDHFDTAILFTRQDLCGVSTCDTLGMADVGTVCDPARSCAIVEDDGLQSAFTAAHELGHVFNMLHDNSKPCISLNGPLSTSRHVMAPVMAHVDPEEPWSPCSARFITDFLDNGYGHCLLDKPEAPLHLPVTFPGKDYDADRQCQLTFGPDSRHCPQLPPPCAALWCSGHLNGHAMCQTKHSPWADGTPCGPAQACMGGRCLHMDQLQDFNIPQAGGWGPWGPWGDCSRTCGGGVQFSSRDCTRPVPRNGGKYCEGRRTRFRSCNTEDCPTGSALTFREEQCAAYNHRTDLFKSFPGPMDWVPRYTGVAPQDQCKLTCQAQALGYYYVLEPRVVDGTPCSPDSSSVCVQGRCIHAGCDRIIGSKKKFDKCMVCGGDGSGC

One assay has as its target ADAMTS4 (Homo sapiens (Human), UniProt O75173). Kind of assay: Selectivity assay for ADAMTS-7 modulators: ADAMTS4 (FRET substrate). It counts as biochemical. The conditions noted are these: ADAMTS4 (R&D 4307-AD) 50 nM, substrate Dabcyl-EEVKAKVQPY-Glu(Edans)-NH2 1 μM, 120 min, 32° C. In a few lines:
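Human ADAMTS4 with compound in DMSO, or DMSO control; reaction started by adding FRET substrate in reaction buffer. Fluorescence increase measured at substrate-specific wavelengths. IC50 derived from % inhibition of enzyme activity versus compound concentration.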
Take `Cn1nccc1C1(CNC(=O)c2cc(F)ccc2-c2ccc(Cl)cc2)NC(=O)NC1=O` (single isomer, unassigned; ent-4) [Example 187, Ent-4′-Chloro-4-Fluoro-N-{[4-(1-Methyl-1H-Pyrazol-5-Yl)-2,5-Dioxoimidazolidin-4-Yl]Methyl}[Biphenyl]-2-Carboxamide]: the IC50 (as a rule, the midpoint of a concentration-inhibition curve) is 3.55 µM.

The compound `Cn1nccc1C1(CNC(=O)c2ccc(F)c(F)c2-c2ccc(C(F)(F)F)cc2)NC(=O)NC1=O` (single isomer, unassigned; ent-5) [Example 191, Ent-5,6-Difluoro-N-{[4-(1-Methyl-1H-Pyrazol-5-Yl)-2,5-Dioxoimidazolidin-4-Yl]Methyl}-4′-(Trifluoromethyl)[Biphenyl]-2-Carboxamide] displayed an IC50 of 6.48 µM.

In turn, `O=C1NC(=O)C(CNC(=O)c2ccccc2-c2ccc(Cl)cc2)(C2(F)CC2)N1` (racemic) [Example 250, Rac-4′-Chloro-N-{[4-(1-Fluorocyclopropyl)-2,5-Dioxoimidazolidin-4-Yl]Methyl}[Biphenyl]-2-Carboxamide] had an IC50 of 31 µM.

In turn, `O=C1NC(=O)C(CNC(=O)c2ccccc2-c2ccc(C(F)(F)F)cc2)(c2cscn2)N1` (stereo not drawn) [Example 197, Ent-N-{[2,5-Dioxo-4-(1,3-Thiazol-4-Yl)Imidazolidin-4-Yl]Methyl}-4′-(Trifluoromethyl)[Biphenyl]-2-Carboxamide] yielded an IC50 of 13 µM.

With `O=C1NC(=O)[C@](CNC(=O)c2ccc(F)c(F)c2-c2ccc(C(F)(F)F)cc2)(C2CC2)N1` [Example 23, N-{[(4R)-4-Cyclopropyl-2,5-Dioxoimidazolidin-4-Yl]Methyl}-5,6-Difluoro-4′-(Trifluoromethyl)[Biphenyl]-2-Carboxamide], the IC50 is 12.5 µM.

On to `O=C1NC(=O)C(CNC(=O)c2ccc(F)cc2-c2ccc(C(F)(F)F)cc2)(c2ncsc2C2CC2)N1` (racemic) [Example 272, Rac-N-{[4-(5-Cyclopropyl-1,3-Thiazol-4-Yl)-2,5-Dioxoimidazolidin-4-Yl]Methyl}-5-Fluoro-4′-(Trifluoromethyl)[Biphenyl]-2-Carboxamide], for which the IC50 is 7.8 µM.

`O=C1NC(=O)[C@](CNC(=O)c2ccc(Cl)c(F)c2-c2ccc(C(F)(F)F)cc2)(C2CC2)N1` [Example 93, 5-Chloro-N-{[(4R)-4-Cyclopropyl-2,5-Dioxoimidazolidin-4-Yl]Methyl}-6-Fluoro-4′-(Trifluoromethyl)[1,1′-Biphenyl]-2-Carboxamide]: the IC50 came to 3.4 µM.

Take `Cc1c(C2(CNC(=O)c3ccc(F)cc3-c3ccc(C(F)(F)F)cc3)NC(=O)NC2=O)ncn1C` (racemic) [Example 304, Rac-N-{[4-(1,5-Dimethyl-1H-Imidazol-4-Yl)-2,5-Dioxoimidazolidin-4-Yl]Methyl}-5-Fluoro-4′-(Trifluoromethyl)[Biphenyl]-2-Carboxamide]: the IC50 was determined as 3.3 µM.

`O=C1NC(=O)C(CNC(=O)c2ccccc2-c2ccc(C(F)(F)F)cc2)(c2cnccn2)N1` (racemic) [Example 30, Rac-N-{[2,5-Dioxo-4-(Pyrazin-2-Yl)Imidazolidin-4-Yl]Methyl}-4′-(Trifluoromethyl)[Biphenyl]-2-Carboxamide] returned an IC50 of 45 µM.

In turn, `Cc1ccc(-c2ccccc2C(=O)NCC2(C(C)C)NC(=O)NC2=O)cc1` (racemic) [Example 204, Rac-N-[(4-Isopropyl-2,5-Dioxoimidazolidin-4-Yl)Methyl]-4′-Methyl[Biphenyl]-2-Carboxamide] returned an IC50 of 22 µM.

Compound `Cn1nccc1C1(CNC(=O)c2cc(F)ccc2-c2ccc(C(F)(F)F)cc2)NC(=O)NC1=O` (racemic) [Example 177, Rac-4-Fluoro-N-{[4-(1-Methyl-1H-Pyrazol-5-Yl)-2,5-Dioxoimidazolidin-4-Yl]Methyl}-4′-(Trifluoromethyl)[Biphenyl]-2-Carboxamide] had an IC50 of 12 µM.

Compound `Cn1nccc1C1(CNC(=O)c2cccc(Cl)c2-c2ccc(C(F)(F)F)cc2)NC(=O)NC1=O` (single isomer, unassigned; ent-6) [Example 310, Ent-6-Chloro-N-{[4-(1-Methyl-1H-Pyrazol-5-Yl)-2,5-Dioxoimidazolidin-4-Yl]Methyl}-4′-(Trifluoromethyl)[Biphenyl]-2-Carboxamide] displayed a half-maximal inhibitory concentration (IC50) of 1.9 µM.

Take `CC(C)(C)C1(CNC(=O)c2ccccc2-c2ccc(C(F)(F)F)cc2)NC(=O)NC1=O` (racemic) [Example 25, Rac-N-[(4-Tert-Butyl-2,5-Dioxoimidazolidin-4-Yl)Methyl]-4′-(Trifluoromethyl)[Biphenyl]-2-Carboxamide]: the IC50 was > 50 µM.

The compound `CC(C)(C)c1ccc(-c2ccccc2C(=O)NC[C@@]2(C3CC3)NC(=O)NC2=O)cc1` [Example 113, 4′-Tert-Butyl-N-{[(4R)-4-Cyclopropyl-2,5-Dioxoimidazolidin-4-Yl]Methyl}[Biphenyl]-2-Carboxamide] had an IC50 of 12 µM.

Regarding `CCCC1(CNC(=O)c2ccccc2-c2ccc(C(F)(F)F)cc2)NC(=O)NC1=O` (racemic) [Example 24, Rac-N-[(2,5-Dioxo-4-Propylimidazolidin-4-Yl)Methyl]-4′-(Trifluoromethyl)[Biphenyl]-2-Carboxamide], the half-inhibitory concentration (IC50) was > 50 µM.

`Cn1ccnc1C1(CNC(=O)c2ccc(Cl)cc2-c2ccc(Cl)cc2)NC(=O)NC1=O` (single isomer, unassigned; ent-4) [Example 162, Ent-4′,5-Dichloro-N-{[4-(1-Methyl-1H-Imidazol-2-Yl)-2,5-Dioxoimidazolidin-4-Yl]Methyl}[Biphenyl]-2-Carboxamide] had an IC50 of 0.463 µM.

Consider `Cc1scnc1C1(CNC(=O)c2ccccc2-c2ccc(S(C)(=O)=O)cc2)NC(=O)NC1=O` (single isomer, unassigned; ent-4) [Example 175, Ent-4′-(Methylsulfonyl)-N-{[4-(5-Methyl-1,3-Thiazol-4-Yl)-2,5-Dioxoimidazolidin-4-Yl]Methyl}[Biphenyl]-2-Carboxamide], for which the IC50 is 4.9 µM.

In turn, `Cc1ccc(C(=O)NCC2(C(C)C)NC(=O)NC2=O)c(-c2ccc(C(F)(F)F)cc2)c1` (stereo not drawn) [Example 203, Ent-N-[(4-Isopropyl-2,5-Dioxoimidazolidin-4-Yl)Methyl]-5-Methyl-4′-(Trifluoromethyl)[Biphenyl]-2-Carboxamide] showed an IC50 of 46 µM.

As to `Cc1ccc(C(=O)NCC2(C3CCC3)NC(=O)NC2=O)c(-c2ccc(C(F)(F)F)cc2)c1` (stereo not drawn) [Example 238, Ent-N-[(4-Cyclobutyl-2,5-Dioxoimidazolidin-4-Yl)Methyl]-5-Methyl-4′-(Trifluoromethyl)[Biphenyl]-2-Carboxamide], the IC50 was 2 µM.

For the compound `O=C1NC(=O)C(CNC(=O)c2ccc(F)cc2-c2ccc(C(F)(F)F)cc2)(c2ncsc2C(F)(F)F)N1` (stereo not drawn) [Example 268, Ent-N-({2,5-Dioxo-4-[5-(Trifluoromethyl)-1,3-Thiazol-4-Yl]Imidazolidin-4-Yl}Methyl)-5-Fluoro-4′-(Trifluoromethyl)[Biphenyl]-2-Carboxamide], the IC50 stood at 27 µM.

Regarding `Cc1ccc(C(=O)NC[C@@]2(C3CC3)NC(=O)NC2=O)c(-c2ccc(C(F)(F)F)cc2)c1C` [Example 145, N-{[(4R)-4-Cyclopropyl-2,5-Dioxoimidazolidin-4-Yl]Methyl}-5,6-Dimethyl-4′-(Trifluoromethyl)[1,1′-Biphenyl]-2-Carboxamide], the IC50 is 2.8 µM.

Regarding `Cn1ccnc1C1(CNC(=O)c2ccc(F)cc2-c2ccc(Cl)cc2)NC(=O)NC1=O` (single isomer, unassigned; ent-4) [Example 157, Ent-4′-Chloro-5-Fluoro-N-{[4-(1-Methyl-1H-Imidazol-2-Yl)-2,5-Dioxoimidazolidin-4-Yl]Methyl}[Biphenyl]-2-Carboxamide], it took 3 µM to reach half-maximal inhibition (IC50).

`Cc1ccc(C(=O)NCC2(c3ccnn3C)NC(=O)NC2=O)c(-c2ccc(C(F)(F)F)cc2)c1` (single isomer, unassigned; ent-5) [Example 308, Ent-5-Methyl-N-{[4-(1-Methyl-1H-Pyrazol-5-Yl)-2,5-Dioxoimidazolidin-4-Yl]Methyl}-4′-(Trifluoromethyl)[Biphenyl]-2-Carboxamide] yielded an IC50 of 4.2 µM.

For the compound `O=C1NC(=O)C(CNC(=O)c2ccc(F)cc2-c2ccc(C(F)(F)F)cc2)(C2CCC2)N1` (stereo not drawn) [Example 239, Ent-N-[(4-Cyclobutyl-2,5-Dioxoimidazolidin-4-Yl)Methyl]-5-Fluoro-4′-(Trifluoromethyl)[Biphenyl]-2-Carboxamide], the IC50 was > 50 µM.

The compound `Cc1nn(C)cc1C1(CNC(=O)c2ccccc2-c2ccc(C(F)(F)F)cc2)NC(=O)NC1=O` (racemic) [Example 60, Rac-N-{[4-(1,3-Dimethyl-1H-Pyrazol-4-Yl)-2,5-Dioxoimidazolidin-4-Yl]Methyl}-4′-(Trifluoromethyl)[Biphenyl]-2-Carboxamide] displayed an IC50 of 15 µM.

For `Cn1ccnc1C1(CNC(=O)c2cc(F)ccc2-c2ccc(Cl)cc2)NC(=O)NC1=O` (single isomer, unassigned; ent-4) [Example 160, Ent-4′-Chloro-4-Fluoro-N-{[4-(1-Methyl-1H-Imidazol-2-Yl)-2,5-Dioxoimidazolidin-4-Yl]Methyl}[Biphenyl]-2-Carboxamide], the IC50 was 0.83 µM.

`Cc1scnc1C1(CNC(=O)c2ccccc2-c2ccc(Cl)cc2)NC(=O)NC1=O` (single isomer, unassigned; ent-4) [Example 172, Ent-4′-Chloro-N-{[4-(5-Methyl-1,3-Thiazol-4-Yl)-2,5-Dioxoimidazolidin-4-Yl]Methyl}[Biphenyl]-2-Carboxamide] registered an IC50 of 3.1 µM.

Still in this assay, the particulars now being: ADAMTS4 (R&D 4307-AD) 50 nM, substrate Dabcyl-[…]-Glu(Edans)-NH2 1 μM, 120 min, 32° C.
Turning to `Cc1scnc1C1(CNC(=O)c2ccc(F)cc2-c2ccc(C(F)(F)F)cc2)NC(=O)NC1=O` (single isomer, unassigned; ent-5) [Example 176, Ent-5-Fluoro-N-{[4-(5-Methyl-1,3-Thiazol-4-Yl)-2,5-Dioxoimidazolidin-4-Yl]Methyl}-4′-(Trifluoromethyl)[Biphenyl]-2-Carboxamide], half-maximal inhibition (IC50) was put at 4.13 µM.
